Values of other authors in publication PMC4741275 (Analytical Chemistry, 2016).

Test system: lysosomes

**Q.** For `Cc1ccc(NC(=O)c2ccc(CN3CCN(C)CC3)cc2)cc1Nc1nccc(-c2cccnc2)n1` [imatinib], which enrichment in lysosomes is on record?
**A.** over 1000 fold

**Q.** For `Cc1cn(-c2cc(NC(=O)c3ccc(C)c(Nc4nccc(-c5cccnc5)n4)c3)cc(C(F)(F)F)c2)cn1` [nilotinib], which enrichment in lysosomes is on record?
**A.** over 1000 fold
